One data set relates to B cell clones. Kind of data set: Cell viability of B cell clones (propidium iodide uptake, flow cytometry). Type of data set: cell-based, human. The settings on record: doxorubicin 300 nM, 96 h, no antibodies. How it is done:
FIG. 4: Autocrine production of IL-17 and BAFF protects B cell clones from doxorubicin-mediated cell death. (A) B cell clones secrete IL-17 and BAFF. B104 human B lymphoma cells and B cell clones DN1#1, DN1#2, DN1#3, DN1#4, DN2#5 and DN2#6 (see FIG. 3, above) were seeded at 10^5 cell/mL in medium alone and maintained in culture for 5 days. At day 5, IL-17 and BAFF concentration in cell culture supernatants was determined by ELISA. (B-1 to B-6) IL-17 and BAFF neutralizing antibodies induce B cell clone apoptosis and increase doxorubicin-induced apoptosis. […] Viability was assessed by propridium iodide uptake and flow cytometry analysis. […] B104 human B lymphoma cell line, either non-treated (NT) or pre-treated for 24 h in the presence of CpG2006 (CpG, 2.5 μg/mL) or IL-17 (1 ng/mL) and BAFF (100 ng/mL) as indicated, as well as clones DN1#1, DN1#2, DN1#3, DN1#4, DN2#5 and DN2#6 were treated or not with doxorubicin (300 nM) for 6 h and then p53, p21 and actin protein expression was assessed by immunoblotting. […]
FIG. 8: Neutralizing antibodies to IL-17, BAFF, IL-6, and IL-10 induce apoptosis and sensitize B cell clones to chemotherapy (doxorubicin). […] Viability was assessed by propridium iodide uptake and flow cytometry analysis.
Cell viability was assessed by propidium iodide (Sigma) uptake. Data were acquired on a FACSCalibur (BD Biosciences) and were analyzed with Flowio software (TreeStar).
Background: Flow cytometry measures light scatter and fluorescence of single cells or particles in a stream.

Data set [1] deals with patients with Rheumatoid Arthritis. The settings on record: cited from earlier work.
In the next data set the test system is SLE patients. The following applies: cited from earlier work.
In data set [2] the test system is MCF10A. Kind of data set: CD24/CD44 flow cytometry (stem cells), MCF10A. Type of data set: cell-based, human. The following applies: MCF10A upon IL-17 exposure; ~16% untreated (FIG. 16D). On the procedure: FIG. 16: IL-17 induces Epithelial to Mesenchymal Transition (EMT) via Twist-1 upregulation in mammary epithelial cells which increases cell migration, invasion and stemness. Human immortalized mammary epithelial cells (MCF10A) cells were untreated (NT) or treated with TNFα (100 ng/mL), TGF (8 ng/mL) or IL-17 (10 ng/mL) for 9 days. (A) MCF10A cells were first transduced using shRNA lentiviral constructs targeting the LUCIFERASE gene (shCt), AICDA gene (shAICDA) or TWIST1 gene (shTWIST1) mRNA and then treated with cytokines as indicated above. IL-17 (but no TNFα or TGFβ) induces EMT in ShCt and ShAICDA MCF10A characterized by loss of epithelial marker E-Cadherin (which, in color, fluoresces in green) and gain of mesenchymal marker Vimentin (which, in color, fluoresces in red) as assessed by immunofluorescence. […] (B) IL-17 (but no TNFα or TGFβ) induces EMT characterized by loss of epithelial markers E-Cadherin, α-Catenin and Occludin and gain of mesenchymal markers N-Cadherin and Vimentin as assessed by immunobloting. […] (C) IL-17 enhances migratory (black bars) and invasive (white bars) abilities of MCF10A cells as assessed in Boyden chamber assays. […]
Expression of human IL-17R (FAB177P, R&D system), CD24 (BD Pharmingen) and CD44 (BD Pharmingen) was determined by flow cytometry on a FACSCalibur flow cytometer (BD Biosciences) and analyzed using FlowJo software (Tree star). […]

The subject of a further data set is MCF7. Kind of data set: CD24/CD44 flow cytometry (cancer stem cells), MCF7. The format is cell-based, human. The following applies: MCF7 upon IL-17 exposure; ~0% untreated (FIG. 17C). How it is done:
(§1) FIG. 17: IL-17 induces Epithelial to Mesenchymal Transition (EMT) in well differentiated and non-metastatic MCF7 breast cancer cells which increases MCF7 cancer cell migration, invasion and sternness. MCF7 cells were untreated (NT) or treated TGFβ (8 ng/mL) or IL-17 (10 ng/mL) for 9 days. (A) IL-17 (but not TGFβ) induces EMT characterized by loss of epithelial marker E-Cadherin (which, in color, fluoresces in green) and gain of mesenchymal marker Vimentin (which, in color, fluoresces in red) as assessed by immunofluorescence. (B) IL-17 enhances migratory (black bars) and invasive (white bars) abilities of MCF7 cancer cells as assessed in Boyden chamber assays. (C-1 to C-3) IL-17 increases the number of CD24^low CD44^high stem cells in MCF7 cancer cells. Flow cytometry assay showing CD24 and CD44 expression in untreated (NT) and IL-17-treated MCF7 cells (IL-17). Decreased CD24 and increased CD44 expression is indicative of cancer stem cells. Red box indicates the cancer stem cell population.
Expression of human IL-17R (FAB177P, R&D system), CD24 (BD Pharmingen) and CD44 (BD Pharmingen) was determined by flow cytometry on a FACSCalibur flow cytometer (BD Biosciences) and analyzed using FlowJo software (Tree star). The antibodies were used at 1/25, 1/100 and 1/100 respectively.

The subject of a further data set is MCF7 breast cancer cells. Kind of data set: Boyden chamber migration and invasion assays, MCF7. The format is cell-based, human. The settings on record: MCF7, IL-17 10 ng/mL, stimulated (FIG. 17B).
Description: as §1, with “MCF7 cells were untreated (NT) or treated TGFβ (8 ng/mL) or IL-17 (10 ng/mL) for 9 days.” left out
For transwell migration assay, 5·10^4 cells were plated in the top chamber with the non-coated membrane (24-well insert; pore size, […]; BD Biosciences). […] Cells that reached the lower chamber were stained with Giemsa and counted. Total number of migrating/invading cell was calculated by analyzing 5 fields per well in two independent experiments, that is 10 fields per condition.

Data set [3] concerns MCF10A. Put plainly: Transwell migration and Matrigel invasion assays, MCF10A. The format is cell-based, human. The settings on record: for increase in cell invasion / increase in cell migration: TNFα 100 ng/mL or TGFβ 8 ng/mL, 9 days. How it is done: FIG. 16: IL-17 induces Epithelial to Mesenchymal Transition (EMT) via Twist-1 upregulation in mammary epithelial cells which increases cell migration, invasion and stemness. Human immortalized mammary epithelial cells (MCF10A) cells were untreated (NT) or treated with TNFα (100 ng/mL), TGF (8 ng/mL) or IL-17 (10 ng/mL) for 9 days. (A) MCF10A cells were first transduced using shRNA lentiviral constructs targeting the LUCIFERASE gene (shCt), AICDA gene (shAICDA) or TWIST1 gene (shTWIST1) mRNA and then treated with cytokines as indicated above. IL-17 (but no TNFα or TGFβ) induces EMT in ShCt and ShAICDA MCF10A characterized by loss of epithelial marker E-Cadherin (which, in color, fluoresces in green) and gain of mesenchymal marker Vimentin (which, in color, fluoresces in red) as assessed by immunofluorescence. […] (B) IL-17 (but no TNFα or TGFβ) induces EMT characterized by loss of epithelial markers E-Cadherin, α-Catenin and Occludin and gain of mesenchymal markers N-Cadherin and Vimentin as assessed by immunobloting. Actin was used as a loading control. (C) IL-17 enhances migratory (black bars) and invasive (white bars) abilities of MCF10A cells as assessed in Boyden chamber assays. (D-1 to D-3) IL-17 increases the number of CD24^low CD44^high stem cells in MCF10A cells. Flow cytometry assay showing CD24 and CD44 expression in untreated (NT) and IL-17-treated MCF10A cells (IL-17). Decreased CD24 and increased CD44 expression is indicative of normal stem cells. Red box indicates the stem cell population.
For transwell migration assay, 5·10^4 cells were plated in the top chamber with the non-coated membrane (24-well insert; pore size, […]; BD Biosciences). For invasion assay, 5·10^4 cells were plated in the top chamber with Matrigel-coated membrane (24-well insert; pore size, […]; BD Biosciences). In both assays, cells were plated in 1% serum medium, and 10% serum medium was used as a chemo-attractant in the lower chamber. The cells were incubated for 24 h. Cells that reached the lower chamber were stained with Giemsa and counted. Total number of migrating/invading cell was calculated by analyzing 5 fields per well in two independent experiments, that is 10 fields per condition.

As to `COc1cccc2c1C(=O)c1c(O)c3c(c(O)c1C2=O)C[C@@](O)(C(=O)CO)C[C@@H]3O[C@H]1C[C@H](N)[C@H](O)[C@H](C)O1` [doxorubicin], the “doxorubicin-induced apoptosis of B cell clones” value in the data set with B cell clones is recorded as “remarkably resistant”.

Take “AIN 457: human anti-IL-17 monoclonal antibody (Novartis)”: the “patients in whom treatment was effective” value in data set [1] (Rheumatoid Arthritis, 27% of patients who received placebo) was 46%. For the same molecule, the “safety / tolerability in RA patients” value in data set [1] (patients with RA) is “safe”.

With Belimumab: humanized anti-BAFF antibody, in the data set with SLE patients, the “biological activity in SLE patients” value is “biologically active” and the “tolerability in SLE patients” value was “well tolerated”.

As for “IL-17: recombinant IL-17 (PeproTech, ref 200-17)”, the “percentage of CD24low/CD44high stem cells” value with MCF10A [2] was 71%. Moreover, the “percentage of CD24lowCD44high cancer stem cells” value in the data set with MCF7 is 67%. Further, in the data set on MCF7 breast cancer cells, the “increase in invasive ability” value is recorded as about 10 fold and the “increase in migratory ability” value is about 8 fold. The “increase in ability to migrate in transwell migration assay” value in the data set with MCF10A [3] (IL-17 10 ng/mL, 9 days (FIG. 16C, black bars)) is recorded as about 16 fold. Also, in the data set on MCF10A [3] (IL-17 10 ng/mL, 9 days (FIG. 16C, white bars)), the “increase in invasive ability in Matrigel invasion assay” value is recorded as about 10 fold.

Consider “LY2439821: humanized monoclonal antibody against IL-17A (Eli Lilly)”, for which, in data set [1] (intravenous, certain doses, RA patients), the “efficacy compared to placebo” value was “statistically significantly more effective”.

In the case of “TGFβ: recombinant TGFβ (PeproTech, 100-21)”, in the data set with MCF10A [3], the “increase in cell invasion” value is “weak” and the “increase in cell migration” value was “weak”.

For the molecule TNFα, in the data set with MCF10A [3], the “increase in cell invasion” value was “no” and the “increase in cell migration” value is “no”.

These data come from patent publication US20140023650A1, “Methods of Treating and/or Preventing Cell Proliferation Disorders with IL-17 Antagonists” (INSTITUT MEDICAL DE LA SANTE ET DE LA RECHERCHE MEDICALE, priority 2010, published 2014).
